The text below walks through data of patent US20260262656A1, “COMPOSITION AND METHOD FOR PROMOTING COLONIZATION OF ARBUSCULAR MYCORRHIZAL FUNGI” (National University Corporation Tottori University, priority 2022, published 2026).

Test [1] deals with Arbuscular mycorrhizal fungus Rhizophagus irregularis DAOM197198. Description: Hyphal branching of AM fungus cultured on gel media. Format: cell-based. The note with it: for hyphal branch numbers compared to the negative control: FIG. 2; for hyphal branch numbers compared to the negative control / activity for promoting hyphal branching (hyphal branch number per spore): Steel test; for hyphal branching activity compared with positive control GR24: GR24 at 100 nM, FIG. 1 and FIG. 2; for activity for promoting hyphal branching (hyphal branch number per spore): concentration range tested 1 to 100 nM, 7-10 days. The method, then:
• Arbuscular mycorrhizal fungus Rhizophagus irregularis DAOM197198 (Premier Tech Biotechnologies)
The spores of the AM fungi were separated and cultured on gels according to the conventional procedures outlined below.
1. In a 50 mL centrifuge tube, Gastrografin aqueous solutions having different densities were gently layered in the order of 50% (10 mL), 32% (5 mL), 16% (5 mL), and 8% (5 mL), and finally 5 mL of a spore suspension of R. irregularis (hereinafter called the AM fungus) was loaded, and centrifugation was performed at 500 g for 10 minutes.
2. The spores separated in the density gradient from the above were collected on a cell strainer and washed with sterilized water 3 times.
3. The spores were suspended in sterilized water at 4000 spores/mL.
4. A 4 μL drop (about 8 spores) each of the spore suspension diluted to 2000 spores/mL was put in the center portion of the M medium (New Phytol. 108:211-218), which had been dispensed in a 24-well plate at 350 μL each.
5. After it was left for 5 minutes to allow excess moisture to evaporate, 200 μL each of 0.3% Phytagel (3 mM MgSO4) at a temperature of about 50° C. was gently poured over the spores. Three to four wells were prepared per treatment group.
6. They were cultured in the dark for 5 days at 25° C. to let the spores germinate in advance.
1. rac-GR24 (hereinafter denoted as GR24), a synthetic strigolactone known to have a hyphal branching activity for the AM fungi, was used as a positive control. From the GR24 stored in acetone, the solvent was removed in vacuo, and GR24 was resuspended in distilled water and sterilized with a 0.45 μm filter.
2. For the other test substances, dry solids were dissolved in distilled water and filter-sterilized as above.
3. 200 μL each of the test solutions was added dropwise onto the Phytagel media comprising the germinated spores obtained in (2) above. The AM fungi were treated using sterilized water as a negative (Mock) control and with GR24 at a final concentration of 100 nM as a positive control.
4. Culturing was performed in the dark for 7-10 days at 25° C.
5. Hyphal branching numbers were measured under a stereomicroscope.
The hyphae that extended and branched directly from the hyphal stem had complex structures and branched well irrespective of the treatment conditions, and therefore they were excluded from the measurements of hyphal branching numbers. […]

Test [2] concerns AM fungi colonizing tomato (Solanum lycopersicum L. cv. Sugar Lump) root. Description: AM fungal colonization of host plant root in plant box: tomato. The note with it: 4 weeks, FIG. 4b. Format: in vivo. The method, then:
(§1) To confirm that the identified active compounds not only promote hyphal branching of the AM fungi but also actually lead to increases of colonization and symbiosis with diverse plants, tests were carried out using lisianthus (Eustoma grandiflorum cv. Pink Thumb), tomato (Solanum lycopersicum L. cv. Sugar Lump), and chive (Allium schoenoprasum) as host plants.
(§2) Culturing of the host plants and AM fungal colonization and treatments with the active compounds were performed according to the following procedures. […]
(§3) Colonization rates of the AM fungi were measured according to the following procedures. […]
(§4) (4) Using a light microscope having an ocular lens fitted with an ocular micrometer, the stage was moved perpendicular to the root (in the Y-axis direction), and when the crosshair of the ocular micrometer touched the root, presence or absence of AM fungal hyphae in the root within the field of view was examined. The rate of hyphal invasion, i.e. colonization rate, as a total was calculated according to the following formula. […]
(§5) The rate of arbuscule formation was calculated according to the above formula by replacing the numerator in parentheses, on the right-hand side of the equation, with “number of fields of view in which arbuscules were seen”.

The test system of test [3] is AM fungi colonizing chive (Allium schoenoprasum) root. Description: AM fungal colonization of host plant root in plant box: chive. Format: in vivo. The method, then:
as §1, §2, §3, §4
The rate of arbuscule formation was calculated according to the above formula by replacing the numerator in parentheses, on the right-hand side of the equation, with “number of fields of view in which arbuscules were seen”. […]

The next test relates to Rhizophagus clarus HR1. The test can be described thus: Hyphal branching of a different AM fungus (as in Example 1). Format: cell-based. The note with it: FIG. 6. The method, then: Essentially the same experiments as described in Example 1 were carried out, except that a different arbuscular mycorrhizal fungus, Rhizophagus clarus HR1, was used. […] The compositions of the present disclosure can increase hyphal branching of diverse arbuscular mycorrhizal fungi included in the order Glomerales besides those exemplified here.

Test [4] concerns common broomrape (Orobanche minor) seeds. Description: Bioassay using common broomrape seeds (germination). The note with it: FIG. 5. Format: cell-based. From the text:
The seeds of the genus Orobanche and genus Striga plants, which are root-parasitic weeds, have the property to germinate in response to strigolactones released from the roots of agricultural plants which serve as hosts. These root-parasitic weeds are causing serious damage to crop production worldwide. This poses a hindrance to the external application of strigolactone as an agent for promoting arbuscular mycorrhizal fungus colonization.
Effect of gentiopicroside (GPS) on the germination of common broomrape (Orobanche minor), a parasitic weed of the genus Orobanche, was investigated. Experiments were performed according to the following experimental procedures.
(1) Common broomrape seeds were placed in a nylon mesh that had been shaped into a pouch (2 cm×2 cm×2 cm) by a sealer, and the opening of the pouch was closed.
(2) The seeds, together with the pouch, were placed in a 1% sodium hypochlorite aqueous solution to sterilize the surface for 20 minutes, and then washed 3 times with sterilized water.
(3) The pouch containing the seeds was placed on a filter paper dampened with sterilized water, and allowed to absorb water for 10 days at 25° C. in the dark.
(4) 6 mm paper discs contained in a 96-well plate were moistened by adding 15 μL distilled water dropwise.
(5) A new paper disc was placed on the paper disc of (4) above, and 20 μL of the test solution was added dropwise. Distilled water was used as a negative control (Mock) and 1 μM strigolactone (GR24) as a positive control. For the solvent for GPS, methanol was chosen due to its volatility.
(6) For treating the common broomrape seeds with both GR24 and GPS, one reagent was first added dropwise, and after complete evaporation of the solvent, the other reagent was then added.
(7) After the discs were left for 5 minutes to remove the solvent by evaporation, the common broomrape seeds of (3) above, which had been transferred to distilled water, were added together with the water as 5 μL drops.
(8) After 5 days of culturing at 25° C. in the dark, the germination rates of the common broomrape were measured.

For test [5], the system named is AM fungi colonizing lisianthus (Eustoma grandiflorum cv. Pink Thumb) root. Description: AM fungal colonization of host plant root in plant box: lisianthus. Format: in vivo. On the set-up: AM fungal colonization rates compared with positive control gibberellin (GA): dose or concentration left out as unconfirmed. The note with it: for root colonization events compared to the mock treatment: 4 weeks. The method, then:
as §1
Culturing of the host plants and AM fungal colonization and treatments with the active compounds were performed according to the following procedures.
(1) Plant box was assembled in 3 tiers: the top tier served as a lid having openings for ventilation, the middle tier was a box to which the culture soil (300 mL river sand) had been added, and the bottom tier was an empty box.
(2) The plant box of (1) above was sterilized by autoclaving (121° C., 20 minutes).
(3) To the culture soil of the middle box, 1000 spores of the AM fungi and 50 mL of the Hoagland hydroponic solution at a 1/10 concentration were added, and stirred with forceps. The active compounds such as GPS were added to the Hoagland hydroponic solution to treat the AM fungi and host plants.
(4) In order to prevent drying of the culture soil, 50 mL of the Hoagland hydroponic solution at a 1/10 concentration was also added to the bottom box. A twisted piece of KimWipe was placed through a hole provided at the bottom of the middle box, with the lower tip of the Kim Wipe soaked into the solution in the bottom box, and therefore the culture soil was maintained without becoming dry.
(5) Six seedlings of each host plant were planted per plant box, and cultured for 4 weeks in a culture chamber set at 24° C. and 14 hour light cycle.
(6) After completing the culturing period above, the root of each host plant was sampled and preserved in an FAA fixative solution.
Colonization rates of the AM fungi were measured according to the following procedures.
(1) The root fixed in said fixative solution was cut into 1 cm fragments and immersed in a 10% KOH aqueous solution, and heated at 90° C. for 15 minutes. […]
as §4, §5

For `COC(=O)C1=CO[C@@H](O[C@@H]2O[C@H](CO)[C@@H](O)[C@H](O)[C@H]2O)[C@@H]2[C@@H](C)[C@@H](O)C[C@H]12` [Loganin], in test [1], the “hyphal branch numbers compared to the negative control” value was “had the activity for the AM fungi to promote hyphal branching”; the “hyphal branching activity compared with positive control GR24” value is “comparable to those of Gentiopicroside and Swertiamarin and the positive control GR24”.

Consider `COC(=O)C1=CO[C@@H](O[C@@H]2O[C@H](CO)[C@@H](O)[C@H](O)[C@H]2O)[C@@H]2C(CO)=CC[C@H]12` [Geniposide], for which, in test [1], the “hyphal branch numbers compared to the negative control” value is “increased the hyphal branch numbers significantly”; the “hyphal branching activity compared with positive control GR24” value was “lower activities compared to GR24 and Loganin”.

`C=C[C@@H]1C2=CCOC(=O)C2=CO[C@H]1O[C@@H]1O[C@H](CO)[C@@H](O)[C@H](O)[C@H]1O` [GPS, Gentiopicroside]: the “GPS concentration giving maximum average colonization rate of the AM fungi” value amounted to 100 nM in test [2] and 10 nM in test [3] (4 weeks, FIG. 4c). In test [3] (1 nM (lowest concentration tested), Dunnett's test), the “AM fungal colonization rate” value is “statistically significant increase”. Moreover, the hyphal branching entry in the test with Rhizophagus clarus HR1 is listed as “significant increases”. Moreover, the “germination of the common broomrape seeds” value in test [4] (1 to 1000 nM GPS alone, 5 days at 25° C. in the dark) is recorded as “did not germinate at all”. Moreover, the “germination rates of the common broomrape seeds” value in test [4] (GPS treatment in the concurrent presence of GR24 treatment) is roughly 100%. Besides, in test [1], the “hyphal branching activity compared with positive control GR24” value is given as “comparable to or greater than that of GR24”. Besides, the “activity for promoting hyphal branching (hyphal branch number per spore)” value in test [1] (FIG. 1) was “significantly high activities for promoting hyphal branching”. The “root colonization events compared to the mock treatment” value was “statistically significant increase” in test [5] (10 nM, Dunnett's test) and “increasing trend” in test [5] (GPS treatments, FIG. 4a). Further, the “outside-of-root hyphae of the AM fungi in the rhizosphere” value in test [5] (GPS treatments, FIG. 4a, left) was “vigorously branching”. Also, the “AM fungal colonization rates compared with positive control gibberellin (GA)” value in test [5] (positive control gibberellin) was “overall lower”.

Consider `C=C[C@H]1[C@H](O[C@@H]2O[C@H](CO)[C@@H](O)[C@H](O)[C@H]2O)OC=C2C(=O)OCC[C@]21O` [SWM, Swertiamarin], for which the hyphal branching entry with Rhizophagus clarus HR1 was “significant increases”. In test [1], the “hyphal branching activity compared with positive control GR24” value was “comparable to or greater than that of GR24”. In addition, the “activity for promoting hyphal branching (hyphal branch number per spore)” value in test [1] (FIG. 1) was “significantly high activities for promoting hyphal branching”.

Consider Oleuropein, for which, in test [1], the “hyphal branch numbers compared to the negative control” value was “increased the hyphal branch numbers significantly”; the “hyphal branching activity compared with positive control GR24” value is “lower activities compared to GR24 and Loganin”.

Turning to `CC1=C[C@H](O/C=C2/C(=O)O[C@@H]3c4ccccc4C[C@H]23)OC1=O` (racemic) [GR24, rac-GR24, reference compound], the hyphal branching entry in the test with Rhizophagus clarus HR1 (positive control, 100 nM) is “significant increases”. For the same compound, the “germination rate of the common broomrape seeds” value in test [4] (1 μM GR24, 5 days at 25° C. in the dark) is reported as roughly 100%. Moreover, the “hyphal branch number per spore compared to the Mock treatment” value in test [1] (positive control, 100 nM, 7-10 days at 25° C. in the dark, FIG. 1) is “significant increase”.
